“Also recorded” adds a separate entry of the source.
Assays:
DU145 cells = assay: MTT colorimetry, tumor cell growth/viability; type: cell-based, human; conditions: 50 μM, 72 hours
Protocol: (§1) Logarithmic growth phase cells were seeded in 96-well culture plate in appropriate density (100 μl in each well). After overnight cultivation, different concentrations of drugs were added and treated for 72 h, while three wells were set for each concentration. After treatment was completed, 20 μl/well of MTT (5 mg/ml in PBS) was added to each well and affected for 3-5 hours, the medium was suctioned out completely and 100 ul/well of DMSO was added, oscillated on decolorization shaker in dark place for 10 minutes until the Blue purple crystals formazan (formazan) was completely dissolved, the OD (Optical Density) value was detected with a microplate reader (detection wavelength: […]; reference wavelength: 650 nM). In blank group, culture medium only added without cells, and in control group, DMSO in the same volume as that for drug was added. Cell viability was calculated=(OD value of experimental group−OD value of control group)/(OD value of control group−OD value of blank group). Tumor cells from different tissue source were selected, and the concentration of Anagrelide was 1 μM and 50 μM, OD value was MTT detected after administrated for 72 hours, and the cell viability was calculated using cell viability=(administered group OD-blank group OD)/(control group OD-blank group OD)*100%, and was mapped by using GraphPadPrism 4 software.

H1299 cells = assay: MTT colorimetry, tumor cell growth/viability; type: cell-based, human; conditions: 50 μM, 72 hours
Protocol: as §1

MDA-MB-231 cells = assay: MTT colorimetry, tumor cell growth/viability; type: cell-based, human; conditions: 50 μM, 72 hours
Protocol: as §1

MDA-MB-468 cells = assay: MTT colorimetry, tumor cell growth/viability; type: cell-based, human; conditions: 50 μM, 72 hours
Protocol: as §1

U87-MG cells = assay: MTT colorimetry, tumor cell growth/viability; type: cell-based, human; conditions: 50 μM, 72 hours
Protocol: as §1

Wi38 cells = assay: MTT colorimetry, tumor cell growth/viability; type: cell-based, human; conditions: 50 μM, 72 hours
Protocol: as §1

H4 cells [1] = assay: RTCA real-time monitoring of cell growth; type: cell-based, human; conditions: 100 nM, within 72 hours
Protocol: (§2) A real-time monitor from Roche was used to detect growth of cells. […] Logarithmic growth phase cells were digested with trypsin, centrifuged and resuspended, and were seeded at 3.5×10^4 /mL per well in 16-well plate matching to cell supporting real-time monitor, and the compound was dosed after 37° C. overnight incubation. Real-time monitoring was used to automatically detect the status of cell growth, and the cell number was reflected by the size of the resistance formed after cell spreading. The larger the cell index value, the faster the cell growth, and the more the number of cells. To further examine Anagrelide inhibition of cell growth, Hela, H4, FHCC98, SMMC7721, BEL7404, A498, SW1116 were taken for further experiment. Through cell real-time monitoring device, real-time monitoring of cell growth status change within 72 hours after Anagrelide administration was conducted (FIG. 3). 3000 cells/100 uL were plated, cultivated overnight, and 100 nM Anagrelide was added. The growth of cells was detected with real-time monitor.

HeLa cells [2] = assay: RTCA real-time monitoring of cell growth; type: cell-based, human; conditions: 100 nM, within 72 hours
Protocol: as §2

SMMC7721 cells = assay: RTCA real-time monitoring of cell growth; type: cell-based, human; conditions: 100 nM, within 72 hours
Protocol: as §2

SW1116 cells = assay: RTCA real-time monitoring of cell growth; type: cell-based, human; conditions: 100 nM, within 72 hours
Protocol: as §2

A498 cells = assay: Cell cycle arrest (summary of experiments); type: cell-based, human
Protocol: (§3) Logarithmic growth phase cells were seeded in 6-well culture plate in 5×10^5/mL concentration, 1.5 mL of culture medium in each well, and cultured overnight. Different concentrations of drugs were added to stimulate for a certain time, and then the cells were collected into 1.5 mL EP tube. The cells were washed with cold PBS for 1-2 times, little PBS (about 200 ul) was added and blown to uniform. 1 mL 75% ethanol was pre-cooled (prepared with PBS), and cells was added dropwise into alcohol solution which was oscillated on shaker, fixed under 4° C. overnight. After 1000rpm centrifuged for 5 min, the supernatant was discarded and 1-2 mL PBS was added to wash twice. The cells were suspended with 0.5 mL RnaseA (1.0 mg/ml), and digested under 37° C. for 1 h. The cells were resuspended with 0.5 mL 25 ug/mL PI dye liquor, and were kept in dark place under 4° C. for 30 min. The cells were filtered with 300 mesh sieve, and the cell cycle distribution was analyzed with flow cytometry.

Bel7404 cells = assay: Cell cycle arrest (summary of experiments); type: cell-based, human
Protocol: as §3

FHCC98 cells = assay: Cell cycle arrest (summary of experiments); type: cell-based, human
Protocol: as §3

H4 cells [3] = assay: Cell cycle arrest (summary of experiments); type: cell-based, human
Protocol: as §3

HeLa cells [4] = assay: Cell migration detection via scratch experiment; type: cell-based, human; conditions: 100 nM, serum-free medium, up to 24 hours
Protocol: The bottom of the six-well plate was uniformly marked with horizontal strips by marker, and then the logarithmic growth phase cells were seeded in the plate by 120×10^4 /mL concentration to make the cells evenly cover the six-well plate, and cells were incubated under 37° C. overnight. Fresh serum-free medium was changed, after the cells were starved for 10 hours, the bottom of six-well plate was scratched perpendicularly to horizontal strips, and washed three times with serum-free medium. After the suspended cells were rinsed, serum-free medium was added and photographed in 0, 2, 6, 12, and 24 hours. Image J was used to calculate the moving distance of the cells. By Scratching assay (HeLa cells were used as an example), the effect of Anagrelide on tumor cell migration was detected.

[5] = system: human H4 transplantation tumor; assay: Human H4 transplantation tumor in nude mice, tumor growth; type: in vivo, BALB/c naked mouse; conditions: for anti-tumor effect (tumor volume, tumor growth): 21 days, vs vehicle control; for tumor weight: end of the experiment (day 21)
Protocol: Under aseptic conditions, tumor cells in the proliferation stage were taken. The cell concentration was adjusted after digestion, seeded at right armpit of nude mice, and the inoculated volume was 0.1 mL. Tumor diameter was measured with vernier caliper, after the tumor was grown to 200-300 mm^3, the tumor-bearing mice were selected, and randomly divided into 3 groups (n=4) according to the size of the tumors: negative control group, Anagrelide I (10 mg/kg), Anagrelide II (30 mg/kg). Each group was intragastric administrated, the day of administration was recorded as d1, the negative control group was given same amount of vehicle, and then the long and short diameters of tumor were measured twice a week, while the body weights of mice were weighed. At the 21th day of the administration, the animals were sacrificed and the tumor was dissected and weighed. Before the animals were sacrificed, eyeball was taken for blood sample, the number of white blood cell (WBC), red blood cell (RBC), concentration of hemoglobin (Hb) and number of platelet (PLT) were measured.

[6] = animal experiments, Fleming and Buyniski 1979; cited from earlier work
phosphodiesterase (PDE) = conditions: subsequent studies; cited from earlier work

O=C1CN2Cc3c(ccc(Cl)c3Cl)N=C2N1 [Anagrelide, 6,7-dichloro-1,5-dihydro-imidazo [2,1-b] quinazolin-2 (3H)-one]
inhibition of cell growth (DU145 cells): inhibited their growth
inhibition of cell growth (H1299 cells): inhibited their growth
inhibition of cell growth (MDA-MB-231 cells): inhibited their growth
inhibition of cell growth (MDA-MB-468 cells): inhibited their growth
inhibition of cell growth (U87-MG cells): inhibited their growth
inhibition of cell growth (Wi38 cells): inhibited their growth
cell growth status, real-time monitoring (H4 cells [1]): ultimately induced the cell death
cell growth status, real-time monitoring (HeLa cells [2]): ultimately induced the cell death
cell growth status, real-time monitoring (SMMC7721 cells): ultimately induced the cell death
cell growth status, real-time monitoring (SW1116 cells): did not cause the cell apoptosis within 72 hours, but the growth was suppressed
effect on cell cycle (cycle arrest) (A498 cells): a significant cycle arrest phenomenon was produced
effect on cell cycle (cycle arrest) (Bel7404 cells): a significant cycle arrest phenomenon was produced
effect on cell cycle (cycle arrest) (FHCC98 cells): the cycle arrest was very strong
effect on cell cycle (cycle arrest) (H4 cells [3]): the cycle arrest was very strong
healing speed of scratch (cell migration) (HeLa cells [4]): significantly inhibit the healing speed of scratch
anti-tumor effect (tumor volume, tumor growth) ([5]; 10 mg/kg intragastric): significant anti-tumor effect
tumor weight ([5]; 10 mg/kg intragastric): significantly lower than that of the vehicle control group
anti-tumor effect (tumor volume, tumor growth) ([5]; 30 mg/kg intragastric): significant anti-tumor effect
tumor weight ([5]; 30 mg/kg intragastric): significantly lower than that of the vehicle control group; also recorded: less than that of Anagrelide I (10 mg/kg) group
anti-thrombotic function [6]: significant anti-thrombotic function
phosphodiesterase (PDE) activity (phosphodiesterase (PDE)): capable of inhibiting phosphodiesterase (PDE) activity
